Experimental data published in patent US20250000872A1, “FORMULATIONS AND DOSING REGIMENS FOR RIP1 KINASE INHIBITORS FOR TREATING AUTOIMMUNE AND INFLAMMATORY DISEASES” (Eli Lilly and Company, priority 2023, published 2025).

Tests used:
[1] = Phase 1 open-label single-dose fixed-sequence study: solid dispersion oral suspension vs crystalline freebase tablet, healthy participants; assay type: in vivo, human; details: amorphous vs corresponding crystalline preparation
Description: Each participant received both formulations in 2 separate dosing periods.
The median tmax was longer for the tablet compared with the oral suspension. The geometric mean t1/2 was similar between formulations. […] Between-participant CV for AUC (0-tlast), AUC (0-∞), and Cmax was higher for the tablet compared with the oral suspension.

[2] = 6-month repeat-dose toxicity study in rats; assay type: in vivo; details: rat, in vivo, po, 1000 mg/kg/day
rats [3] = assay: 6-month repeat-dose toxicity study in rats; assay type: in vivo
[4] = Repeat-dose toxicity studies in monkeys (up to 9-month); assay type: in vivo; details: monkey, in vivo
monkeys = assay: as above; assay type: in vivo
[5] = Rat embryofetal development study; assay type: in vivo; details: female, rat, in vivo, po; plasma toxicokinetics on Gestational Day 17, 1000 mg/kg/day; read-out: AUC0-24 at rat EFD NOEL
rats [6] = assay: Rat embryofetal development study; assay type: in vivo
[7] = Rabbit embryofetal development study; assay type: in vivo; details: female, rabbit, in vivo, po; plasma toxicokinetics on Gestational Day 19, 120 mg/kg/day; read-out: AUC0-24 at rabbit EFD NOEL
rabbits = assay: Rabbit embryofetal development study; assay type: in vivo
CYP2C8 = molecular target: T1, CYP2C8 (Homo sapiens, UniProt P10632); assay: In vitro drug-drug interaction studies: CYP2C8 inhibition; assay type: in vitro ADME; details: based upon in vitro studies
T1 sequence (P10632 1-490): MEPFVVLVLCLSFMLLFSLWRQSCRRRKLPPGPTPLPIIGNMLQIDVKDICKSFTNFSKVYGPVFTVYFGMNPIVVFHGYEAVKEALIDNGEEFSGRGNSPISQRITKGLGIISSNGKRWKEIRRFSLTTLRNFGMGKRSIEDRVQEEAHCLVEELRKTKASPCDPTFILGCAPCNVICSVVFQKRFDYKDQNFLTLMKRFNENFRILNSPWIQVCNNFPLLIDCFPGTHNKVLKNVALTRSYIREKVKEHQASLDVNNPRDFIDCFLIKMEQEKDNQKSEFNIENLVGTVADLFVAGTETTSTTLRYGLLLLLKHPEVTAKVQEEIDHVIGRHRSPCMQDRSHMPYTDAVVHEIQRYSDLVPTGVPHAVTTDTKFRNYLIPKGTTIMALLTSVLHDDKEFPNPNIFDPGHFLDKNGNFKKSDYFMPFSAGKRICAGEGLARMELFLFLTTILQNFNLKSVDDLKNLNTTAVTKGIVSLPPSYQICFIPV

CYP2C9 = CYP2C9 (Homo sapiens, UniProt P11712); assay: In vitro drug-drug interaction studies: CYP2C9 inhibition; assay type: in vitro ADME; details: based upon in vitro studies
Chain of CYP2C9 (P11712 whole entry): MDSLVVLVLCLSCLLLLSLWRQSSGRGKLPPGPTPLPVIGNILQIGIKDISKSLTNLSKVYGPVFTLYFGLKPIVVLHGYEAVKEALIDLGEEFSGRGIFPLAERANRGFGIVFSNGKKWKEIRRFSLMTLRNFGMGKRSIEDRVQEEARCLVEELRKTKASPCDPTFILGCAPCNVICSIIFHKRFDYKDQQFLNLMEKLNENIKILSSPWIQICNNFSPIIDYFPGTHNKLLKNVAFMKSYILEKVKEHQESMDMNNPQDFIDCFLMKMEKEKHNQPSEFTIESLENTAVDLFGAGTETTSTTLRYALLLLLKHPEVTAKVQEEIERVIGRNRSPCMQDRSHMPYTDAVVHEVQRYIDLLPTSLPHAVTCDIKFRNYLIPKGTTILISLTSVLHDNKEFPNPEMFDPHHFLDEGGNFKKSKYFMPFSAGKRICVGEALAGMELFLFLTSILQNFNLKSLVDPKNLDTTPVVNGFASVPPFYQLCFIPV

CYP2D6 = CYP2D6 (Homo sapiens, UniProt P10635); assay: In vitro drug-drug interaction studies: CYP2D6 inhibition; assay type: in vitro ADME; details: based upon in vitro studies
Chain of CYP2D6 (P10635 whole entry): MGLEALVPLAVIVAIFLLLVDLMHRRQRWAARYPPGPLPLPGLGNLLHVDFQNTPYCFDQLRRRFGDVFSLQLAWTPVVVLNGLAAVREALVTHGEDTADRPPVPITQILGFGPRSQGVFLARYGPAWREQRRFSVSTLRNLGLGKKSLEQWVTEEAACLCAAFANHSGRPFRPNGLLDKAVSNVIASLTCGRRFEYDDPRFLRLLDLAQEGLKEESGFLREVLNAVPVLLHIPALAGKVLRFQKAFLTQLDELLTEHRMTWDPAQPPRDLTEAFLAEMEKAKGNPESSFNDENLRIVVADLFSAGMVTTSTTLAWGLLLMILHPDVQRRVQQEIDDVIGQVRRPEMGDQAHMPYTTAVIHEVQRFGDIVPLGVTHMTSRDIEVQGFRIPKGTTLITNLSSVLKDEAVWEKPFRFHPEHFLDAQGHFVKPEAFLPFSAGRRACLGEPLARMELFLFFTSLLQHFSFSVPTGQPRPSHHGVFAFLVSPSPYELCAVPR

CYP3A5 = assay: In vitro drug-drug interaction studies: CYP3A5 induction; assay type: in vitro ADME; details: based upon in vitro studies
OATP2B1 = molecular target: T2, OATP2B1 (Homo sapiens, UniProt O94956); assay: In vitro drug-drug interaction studies: OATP2B1 transporter inhibition; assay type: in vitro ADME; details: based upon in vitro studies
T2 sequence (O94956 1-709): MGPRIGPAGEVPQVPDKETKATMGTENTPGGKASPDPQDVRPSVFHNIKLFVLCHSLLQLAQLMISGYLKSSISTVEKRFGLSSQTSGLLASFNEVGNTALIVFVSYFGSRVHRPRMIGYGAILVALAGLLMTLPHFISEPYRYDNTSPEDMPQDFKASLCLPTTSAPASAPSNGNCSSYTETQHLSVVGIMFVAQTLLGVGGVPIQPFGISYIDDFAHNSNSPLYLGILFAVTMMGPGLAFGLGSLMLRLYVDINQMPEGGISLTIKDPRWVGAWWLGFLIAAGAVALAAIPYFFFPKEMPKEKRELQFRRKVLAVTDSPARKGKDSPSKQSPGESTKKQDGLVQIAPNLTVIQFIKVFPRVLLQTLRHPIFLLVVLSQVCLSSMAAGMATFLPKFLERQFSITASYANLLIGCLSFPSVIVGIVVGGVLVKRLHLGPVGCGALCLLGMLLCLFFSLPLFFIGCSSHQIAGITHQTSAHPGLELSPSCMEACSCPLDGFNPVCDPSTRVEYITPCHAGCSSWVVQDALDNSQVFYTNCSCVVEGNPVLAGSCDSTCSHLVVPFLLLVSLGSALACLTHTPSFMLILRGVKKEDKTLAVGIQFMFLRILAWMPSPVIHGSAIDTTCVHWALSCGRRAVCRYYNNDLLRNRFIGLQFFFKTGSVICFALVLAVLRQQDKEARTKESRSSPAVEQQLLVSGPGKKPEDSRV

CYP3A = assay: Preliminary in vitro CYP3A induction data; assay type: in vitro ADME
Description: Investigators should be aware of participants' concomitant use of CYP3A substrates.

[8] = Yan et al. ASCPT 2021 poster, cited from earlier work
[9] = AUC in animals/(predicted) AUC in humans
[10] = concerns for women of childbearing potential

Structure (SMILES): CN1C(=O)[C@@H](NC(=O)c2n[nH]c(Cc3ccccc3)n2)COc2ccc(C#CC(C)(C)O)cc21 [Compound I, (S)-5-benzyl-N-(7-(3-hydroxy-3-methylbut-1-yn-1-yl)-5-methyl-4-oxo-2,3,4,5-tetrahydrobenzo[b][1,4]oxazepin-3-yl)-1H-1,2,4-triazole-3-carboxamide]
- bioavailability, amorphous state (solid dispersion) over crystalline form [1]: significantly improved
- AUC(0-t) [2]: 1080 µg·h/mL
- Margin of Safety, rat NOAEL vs human 50 mg (rats [3]; [9]): 67 X
- Margin of Safety, rat NOAEL vs human 125 mg (rats [3]; [9]): 27 X
- toxicology findings in rats (rats [3]; toxicology studies up to 6 months): minimal effects
- NOAEL at 9 months [4]: 150 mg/kg
- AUC(0-t) ([4]; po, plasma toxicokinetics on Day 273, 150 mg/kg/day, read-out: AUC0-24 at monkey NOAEL): 278 µg·h/mL
- Margin of Safety, monkey NOAEL vs human 50 mg (monkeys; [9]): 17 X
- Margin of Safety, monkey NOAEL vs human 125 mg (monkeys; [9]): 7 X
- doses with mortality related to secondary infections (monkeys; monkeys, toxicology studies up to 9 months): ≥ 250 mg/kg/day
- AUC(0-t) [5]: 1120 µg·h/mL
- Margin of Safety, rat EFD NOEL vs human 50 mg (rats [6]; [9]): 70 X
- Margin of Safety, rat EFD NOEL vs human 125 mg (rats [6]; [9]): 28 X
- developmental and reproductive toxicology outcome, rats (rats [6]; [10]): did not reveal any concerns
- Rat EFD NOEL dose (rats [6]; rat embryofetal development study): 1000 mg/kg/day
- AUC(0-t) [7]: 464 µg·h/mL
- Margin of Safety, rabbit EFD NOEL vs human 50 mg (rabbits; [9]): 29 X
- Margin of Safety, rabbit EFD NOEL vs human 125 mg (rabbits; [9]): 12 X
- developmental and reproductive toxicology outcome, rabbits (rabbits; [10]): did not reveal any concerns
- Rabbit EFD NOEL dose (rabbits; rabbit embryofetal development study): 120 mg/kg/day
- inhibition of drugs metabolized by CYP2C8 (CYP2C8): may inhibit
- inhibition of drugs metabolized by CYP2C9 (CYP2C9): may inhibit
- inhibition of drugs metabolized by CYP2D6 (CYP2D6): may inhibit
- induction of CYP3A5 (CYP3A5): may induce
- inhibition of substrates of OATP2B1 transporter (OATP2B1): may also inhibit
- induction of CYP3A (CYP3A): weak inducer
- safety and tolerability ([8]; following single and multiple doses): generally safe, and well tolerated
- pharmacokinetics linearity ([8]; tested dose range up to 1000 mg): linear pharmacokinetics
